Tests used:
Assay type in all cases: in vivo
[1] = test system: Chilo suppressalis (Striped Rice Stemborer); assay: Example B4: Chilo suppressalis (striped rice stemborer), artificial diet, L2 larvae; conditions: 144 h, application rate 200 ppm, 6 days after infestation
In short: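 L2 larvae (6-8 per well) placed on artificial diet treated with aqueous test solutions prepared from 10,000 ppm DMSO stocks, after drying. Mortality, anti-feeding and growth inhibition scored against untreated samples 6 days after infestation; control means at least one category exceeds untreated.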

[2] = test system: Tetranychus urticae (Two-Spotted Spider Mite); assay: Example B11: Tetranychus urticae (two-spotted spider mite), feeding/contact activity; conditions: 192 h, application rate 200 ppm, mixed population (mobile stages), 8 days after infestation
Method: Example B11: Tetranychus urticae (Two-Spotted Spider Mite):Feeding/Contact Activity
Bean leaf discs on agar in 24-well microtiter plates were sprayed with aqueous test solutions prepared from 10,000 ppm DMSO stock solutions. After drying the leaf discs were infested with a mite population of mixed ages. The samples were assessed for mortality on mixed population (mobile stages) 8 days after infestation.

[3] = test system: Spodoptera littoralis (Egyptian Cotton Leaf Worm); assay: Example B9: Spodoptera littoralis (Egyptian cotton leaf worm), cotton leaf discs sprayed, L1 larvae; conditions: foliar, 72 h, application rate 200 ppm, 3 days after infestation
In short: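 Leaf discs on agar sprayed with aqueous dilutions from 10,000 ppm DMSO stock, dried, then infested with five L1 larvae. Mortality, anti-feeding and growth inhibition scored against untreated samples 3 days after infestation; control counted when any category exceeds untreated.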

[4] = test system: Plutella xylostella (Diamond Back Moth); assay: Example B5: Plutella xylostella (diamond back moth), artificial diet, 24-well, eggs; conditions: 192 h, application rate 200 ppm, 8 days after infestation, read-out: effect in at least one of the two categories (mortality or growth inhibition)
In short: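 Artificial diet in 24-well plates treated with aqueous dilutions of 10,000 ppm DMSO stocks, dried, then infested with Plutella eggs. Mortality and growth inhibition scored against untreated samples 8 days after infestation; activity rated at 200 ppm application rate.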

[5] = test system: Euschistus heros (Neotropical Brown Stink Bug); assay: Example B2: Euschistus heros (neotropical brown stink bug), soybean leaves sprayed, N2 nymphs; conditions: 120 h, application rate 200 ppm, 5 days after infestation, read-out: effect in at least one of the two categories (mortality or growth inhibition)
In short: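 Soybean leaves on agar sprayed with aqueous test solutions made from 10,000 ppm DMSO stocks, dried, then infested with N2 nymphs. Mortality and growth inhibition scored versus untreated samples 5 days after infestation; activity threshold at 200 ppm.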

[6] = test system: Diabrotica Balteata (Corn Root Worm); assay: Example B1: Diabrotica balteata (corn root worm), maize sprouts sprayed, L2 larvae; conditions: 96 h, application rate 200 ppm, 4 days after infestation, read-out: effect in at least one of the two categories (mortality or growth inhibition)
In short: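 Maize sprouts on agar sprayed with aqueous dilutions of 10,000 ppm DMSO stocks, dried, then infested with 6–10 L2 larvae per well. Mortality and growth inhibition scored against untreated samples 4 days after infestation; rates of 200 ppm.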

[7] = test system: Myzus persicae (Green Peach Aphid); assay: Example B13: activity against Myzus persicae (green peach aphid), 96-well sucrose solution; conditions: 120 h, application rate 50 ppm, 5 days after infestation
In short: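 Compounds, from 10,000 ppm DMSO stocks, mixed into sucrose solution in wells under stretched Parafilm, with aphids placed on the membrane in an inverted feeding setup. Mortality scored 5 days after infestation.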

[8] = test system: Plutella xylostella (Diamondback Moth); assay: Example B14: activity against Plutella xylostella (diamondback moth), 96-well artificial diet; conditions: 216 h, application rate 500 ppm, 9 days after infestation
In short: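 Diet in 96-well plates was treated with aqueous dilutions of 10,000 ppm DMSO stocks, dried, and infested with 30 eggs per well via a netted lid; hatching L1 larvae fed on the diet. Mortality scored 9 days after infestation.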

[9] = test system: Frankliniella occidentalis (Western Flower Thrips); assay: Example B3: Frankliniella occidentalis (western flower thrips), feeding/contact activity; conditions: 168 h, application rate 200 ppm, mixed ages, 7 days after infestation
Method: Example B3: Frankliniella occidentalis (Western Flower Thrips):Feeding/Contact Activity
(§1) Sunflower leaf discs were placed on agar in 24-well microtiter plates and sprayed with aqueous test solutions prepared from 10,000 DMSO stock solutions. After drying the leaf discs were infested with a Frankliniella population of mixed ages. The samples were assessed for mortality 7 days after infestation.

[10] = test system: Myzus persicae (Green Peach Aphid); assay: Example B8: Myzus persicae (green peach aphid), intrinsic activity; conditions: 120 h, test rate 12 ppm, sucrose solution, 24-well, 5 days after infestation
In short: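 Compounds diluted from 10,000 ppm DMSO stock were mixed with sucrose solution under stretched Parafilm in a sachet feeding setup, with aphid-infested pea seedlings placed on the membrane. Mortality was scored 5 days after infestation.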

[11] = test system: Myzus persicae (Green Peach Aphid); assay: Example B7: Myzus persicae (green peach aphid), systemic activity; conditions: 144 h, test rate 24 ppm, pea seedling roots in test solution, 6 days
Method: Example B7: Myzus persicae (Green Peach Aphid), Systemic Activity
Roots of pea seedlings infested with an aphid population of mixed ages were placed directly into aqueous test solutions prepared from 10,000 DMSO stock solutions. The samples were assessed for mortality 6 days after placing seedlings into test solutions.

[12] = test system: Spodoptera littoralis (Egyptian Cotton Leaf Worm); assay: Example B10: Spodoptera littoralis (Egyptian cotton leaf worm), uptake by lettuce roots from agar, eggs; conditions: 144 h, test rate 12.5 ppm, lettuce root uptake, 6 days after infestation, read-out: effect in at least one of the three categories (mortality, anti-feeding, or growth inhibition)
In short: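 Compound mixed into agar from a 10,000 ppm DMSO stock; lettuce grown on it for 7 days for root uptake. Cut leaves infested with Spodoptera eggs; mortality, anti-feedant effect and growth inhibition scored against untreated samples 6 days after infestation.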

[13] = test system: Myzus persicae (Green Peach Aphid); assay: Example B6: Myzus persicae (green peach aphid), feeding/contact activity; conditions: 144 h, application rate 200 ppm, 6 days after infestation
Method: Example B6: Myzus persicae (Green Peach Aphid):Feeding/Contact Activity
Sunflower leaf discs were placed onto agar in a 24-well microtiter plate and sprayed with aqueous test solutions prepared from 10,000 ppm DMSO stock solutions. After drying, the leaf discs were infested with an aphid population of mixed ages. The samples were assessed for mortality 6 days after infestation.

[14] = test system: Thrips tabaci (Onion Thrips); assay: Example B12: Thrips tabaci (onion thrips), feeding/contact activity; conditions: 144 h, application rate 200 ppm, mixed ages, 6 days after infestation
Method: Example B12: Thrips tabaci (Onion Thrips) Feeding/Contact Activity
as §1, with “10,000 ppm” for “10,000”, “thrips” for “Frankliniella”, “6” for “7”

CC(NC(=O)c1cc(C(F)(F)F)cc(C(C)(C)C#N)c1)c1ncnn1-c1ncc(Br)cn1 (stereo not shown) [P79, N-[1-[2-(5-bromopyrimidin-2-yl)-1,2,4-triazol-3-yl]ethyl]-3-(1-cyano-1-methyl-ethyl)-5-(trifluoromethyl)benzamide]
≥ 80%: percent control (mortality, anti-feedant effect or growth inhibition) at 200 ppm [1] | mortality at 200 ppm [2] | percent control (mortality, anti-feedant effect or growth inhibition) at 200 ppm [3] | percent effect (mortality or growth inhibition) at 200 ppm [4] | percent effect (mortality or growth inhibition) at 200 ppm [5] | percent effect (mortality or growth inhibition) at 200 ppm [6]

CC(NC(=O)c1cc(-c2cccnc2Cl)cc(C(F)(F)F)c1)c1ncnn1-c1ncccn1 (stereo not shown) [P62, 3-(2-chloro-3-pyridyl)-N-[1-(2-pyrimidin-2-yl-1,2,4-triazol-3-yl)ethyl]-5-(trifluoromethyl)benzamide]
≥ 80%: mortality at 200 ppm [2]

CC(c1ncnn1-c1ncccn1)N(CC1CC1)C(=O)c1cc(C(C)(C)C#N)cc(Cl)n1 (stereo not shown) [P27, 6-chloro-4-(1-cyano-1-methyl-ethyl)-N-(cyclopropylmethyl)-N-[1-(2-pyrimidin-2-yl-1,2,4-triazol-3-yl)ethyl]pyridine-2-carboxamide]
≥ 80%: mortality at 200 ppm [2] | mortality at 50 ppm [7] | mortality at 500 ppm [8] | percent effect (mortality or growth inhibition) at 200 ppm [4] | percent effect (mortality or growth inhibition) at 200 ppm [5]

CC(c1ncnn1-c1ncccn1)N(CC1CC1)C(=O)c1cc(C(F)(F)F)cc(C2(C(F)(F)F)CC2)c1 (stereo not shown) [P45, N-(cyclopropylmethyl)-N-[1-(2-pyrimidin-2-yl-1,2,4-triazol-3-yl)ethyl]-3-(trifluoromethyl)-5-[1-(trifluoromethyl)cyclopropyl]benzamide]
≥ 80%: mortality at 200 ppm [9] | mortality at 50 ppm [7] | mortality at 500 ppm [8] | mortality at 12 ppm [10] | percent control (mortality, anti-feedant effect or growth inhibition) at 200 ppm [3] | mortality at 24 ppm [11] | percent effect (mortality or growth inhibition) at 200 ppm [4] | percent effect (mortality or growth inhibition) at 200 ppm [5] | percent effect (mortality or growth inhibition) at 200 ppm [6] | percent effect (mortality, anti-feeding or growth inhibition) at 12.5 ppm [12]

CC(NC(=O)c1cc(C(F)(F)F)cc(S(C)(=O)=O)c1)c1ncnn1-c1ncccn1 (stereo not shown) [P64, 3-methylsulfonyl-N-[1-(2-pyrimidin-2-yl-1,2,4-triazol-3-yl)ethyl]-5-(trifluoromethyl)benzamide]
≥ 80%: mortality at 200 ppm [9] | percent control (mortality, anti-feedant effect or growth inhibition) at 200 ppm [1] | mortality at 50 ppm [7] | mortality at 12 ppm [10] | percent control (mortality, anti-feedant effect or growth inhibition) at 200 ppm [3] | mortality at 24 ppm [11] | mortality at 200 ppm [13] | percent effect (mortality or growth inhibition) at 200 ppm [4] | percent effect (mortality or growth inhibition) at 200 ppm [5] | percent effect (mortality or growth inhibition) at 200 ppm [6]

CC(NC(=O)c1cc(C(F)(F)F)cc(C2(C#N)CC2)c1)c1ncnn1-c1ncccn1 (stereo not shown) [P85, 3-(1-cyanocyclopropyl)-N-[1-(2-pyrimidin-2-yl-1,2,4-triazol-3-yl)ethyl]-5-(trifluoromethyl)benzamide]
≥ 80%: mortality at 200 ppm [9] | percent control (mortality, anti-feedant effect or growth inhibition) at 200 ppm [1] | mortality at 50 ppm [7] | mortality at 12 ppm [10] | percent control (mortality, anti-feedant effect or growth inhibition) at 200 ppm [3] | mortality at 200 ppm [13] | percent effect (mortality or growth inhibition) at 200 ppm [4] | percent effect (mortality or growth inhibition) at 200 ppm [5] | percent effect (mortality or growth inhibition) at 200 ppm [6] | percent effect (mortality, anti-feeding or growth inhibition) at 12.5 ppm [12]

CC(c1ncnn1-c1ncccn1)N(CC1CC1)C(=O)c1cc(C(F)(F)F)cc(S(C)(=O)=O)c1 (stereo not shown) [P34, N-(cyclopropylmethyl)-3-methylsulfonyl-N-[1-(2-pyrimidin-2-yl-1,2,4-triazol-3-yl)ethyl]-5-(trifluoromethyl)benzamide]
≥ 80%: mortality at 200 ppm [2] | mortality at 50 ppm [7] | mortality at 500 ppm [8] | mortality at 12 ppm [10] | mortality at 24 ppm [11] | mortality at 200 ppm [14] | mortality at 200 ppm [13] | percent effect (mortality or growth inhibition) at 200 ppm [4] | percent effect (mortality or growth inhibition) at 200 ppm [5] | percent effect (mortality or growth inhibition) at 200 ppm [6]

C[C@H](NC(=O)c1cc(C2CC2)cc(C(F)(F)F)c1)c1ncnn1-c1ncccn1 [P72, 3-cyclopropyl-N-[(1S)-1-(2-pyrimidin-2-yl-1,2,4-triazol-3-yl)ethyl]-5-(trifluoromethyl)benzamide]
≥ 80%: mortality at 200 ppm [9] | percent control (mortality, anti-feedant effect or growth inhibition) at 200 ppm [1] | mortality at 12 ppm [10] | percent control (mortality, anti-feedant effect or growth inhibition) at 200 ppm [3] | mortality at 200 ppm [13] | percent effect (mortality or growth inhibition) at 200 ppm [4] | percent effect (mortality or growth inhibition) at 200 ppm [5] | percent effect (mortality or growth inhibition) at 200 ppm [6]

Cc1nc(C(C)NC(=O)c2cc(C(F)(F)F)cc(C3(C#N)CC3)c2)n(-c2ncc(Br)cn2)n1 (stereo not shown) [P78, N-[1-[2-(5-bromopyrimidin-2-yl)-5-methyl-1,2,4-triazol-3-yl]ethyl]-3-(1-cyanocyclopropyl)-5-(trifluoromethyl)benzamide]
≥ 80%: mortality at 200 ppm [9] | percent control (mortality, anti-feedant effect or growth inhibition) at 200 ppm [1] | mortality at 12 ppm [10] | percent control (mortality, anti-feedant effect or growth inhibition) at 200 ppm [3] | percent effect (mortality or growth inhibition) at 200 ppm [4] | percent effect (mortality or growth inhibition) at 200 ppm [5] | percent effect (mortality or growth inhibition) at 200 ppm [6]

CC(c1ncnn1-c1ncccn1)N(CC1CC1)C(=O)c1cc(C(F)(F)F)cc(S(=O)(=O)C(F)(F)F)c1 (stereo not shown) [P89, N-(cyclopropylmethyl)-N-[1-(2-pyrimidin-2-yl-1,2,4-triazol-3-yl)ethyl]-3-(trifluoromethyl)-5-(trifluoromethylsulfonyl)benzamide]
≥ 80%: percent control (mortality, anti-feedant effect or growth inhibition) at 200 ppm [1] | mortality at 50 ppm [7] | mortality at 500 ppm [8] | mortality at 12 ppm [10] | percent control (mortality, anti-feedant effect or growth inhibition) at 200 ppm [3] | mortality at 24 ppm [11] | mortality at 200 ppm [14] | mortality at 200 ppm [13] | percent effect (mortality or growth inhibition) at 200 ppm [4] | percent effect (mortality or growth inhibition) at 200 ppm [5] | percent effect (mortality or growth inhibition) at 200 ppm [6] | percent effect (mortality, anti-feeding or growth inhibition) at 12.5 ppm [12]

Reference: patent US20210267203A1, “PESTICIDALLY ACTIVE AZOLE-AMIDE COMPOUNDS” (SYNGENTA PARTICIPATIONS AG, priority 2018, published 2021)
